Data from patent publication US10407467B2, “Polymyxin derivatives and their use in combination therapy together with different antibiotics” (priority 2013, dated 2019).
Counter-ions that a name gives are not always drawn. Like-named read-outs stand apart in the source and are kept apart here. Numbered stars: 1 amine (or outer) side, 2 acyl side, 3 side chain; on linkers, the order of the positions; unused ones are H or OH. Bridge positions count the residues as written; N and C are the ends. Square brackets hold non-standard residues; d marks the D form. Peptide text beside a SMILES is read from it. * marks the point of attachment. ξ: configuration not given here. NHCH2(1,3-C6H4)CH2CO = O=C(Cc1cccc(CN[*:1])c1)[*:2]; ξβ3hPhg = O=C(CC(N[*:1])c1ccccc1)[*:2]; X6 = N[C@@H](CC(=O)*)c1ccc2ccccc2c1; ξβ3hGly(cHex) = NC(CC(=O)*)C1CCCCC1; Thr(3ξ) = CC(O)[C@H](N)C(=O)O; Dab = NCC[C@H](N)C(=O)O; Dap = NC[C@H](N)C(=O)O

Assays:
Acinetobacter baumannii [1] = experiment: MIC, sole activity (no second agent); assay type: cell-based; details: in the absence of Rifampicin; for MIC A. baumannii ATCC13424: strain ATCC13424; for MIC A. baumannii CCUG57249: strain CCUG 57249; for MIC A. baumannii ATCCBAA-747: strain ATCCBAA-747
In short: (§1)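 Compound tested without a second agent in cation-adjusted MHB, up to four strains per species, inoculum at 0.5 McFarland from colonies grown 18-24 h on Mueller-Hinton agar. Run in duplicate, invalid beyond 2-fold disagreement, lower duplicate or modal repeat value given, expressed relative to Polymyxin B.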

Pseudomonas aeruginosa [2] = experiment: MIC, sole activity (no second agent); assay type: cell-based; details: in the absence of Rifampicin; for MIC P. aeruginosa ATCC 27853: strain ATCC27853; for MIC P. aeruginosa ATCC-47: strain ATCC-47; for MIC P. aeruginosa CCUG 59626: strain CCUG 59626; for MIC P. aeruginosa ATCCCRM-9027: strain ATCCCRM-9027
In short: as §1

Klebsiella pneumoniae [3] = experiment: MIC, sole activity (no second agent); assay type: cell-based; details: in the absence of Rifampicin; for MIC K. pneumoniae ATCC 4352: strain ATCC 4352; for MIC K. pneumoniae CCUG-59348: strain CCUG-59348; for MIC K. pneumoniae NCTC-13438: strain NCTC-13438; for MIC K. pneumoniae ATCC-BAA2146: strain ATCC-BAA2146
In short: as §1

Escherichia coli [4] = experiment: MIC, sole activity (no second agent); assay type: cell-based; details: in the absence of Rifampicin; for MIC E. coli ATCC25922: strain ATCC25922; for MIC E. coli NCTC9001: strain NCTC9001
In short: as §1

Acinetobacter baumannii [5] = experiment: MIC, compound in combination with a second agent (broth microdilution); assay type: cell-based; details: 1:1 (wt:wt) combination with Rifampicin, MIC = total drug concentration; for MIC A. baumannii CCUG57249: strain CCUG57249; for MIC A. baumannii NCTC 13424: strain NCTC 13424; for MIC A. baumannii ATCC BAA-747: strain ATCC BAA-747; for MIC A. baumannii NCTC 13423: strain NCTC 13423
In short: (§2)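 Isolated colonies from an 18-24 hour Mueller-Hinton agar plate are suspended to the 0.5 McFarland standard, then tested against 1:1 w/w mixtures of compound and a second antibacterial such as rifampicin. Reported MICs represent total drug (both components).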

Pseudomonas aeruginosa [6] = experiment: as above; assay type: cell-based; details: 1:1 (wt:wt) combination with Rifampicin, MIC = total drug concentration; for MIC P. aeruginosa ATCC 27853: strain ATCC 27853; for MIC P. aeruginosa ATCC-47: strain ATCC-47; for MIC P. aeruginosa CCUG 59626: strain CCUG 59626; for MIC P. aeruginosa ATCC CRM-9027: strain ATCC CRM-9027
In short: as §2

Klebsiella pneumoniae [7] = experiment: as above; assay type: cell-based; details: 1:1 (wt:wt) combination with Rifampicin, MIC = total drug concentration; for MIC K. pneumoniae ATCC 4352: strain ATCC 4352; for MIC K. pneumoniae CCUG-59348: strain CCUG-59348; for MIC K. pneumoniae NCTC 13438: strain NCTC 13438; for MIC K. pneumoniae ATCC-BAA-2146: strain ATCC-BAA-2146
In short: as §2

Escherichia coli [8] = experiment: as above; assay type: cell-based; details: 1:1 (wt:wt) combination with Rifampicin, MIC = total drug concentration; for MIC E. coli ATCC25922: strain ATCC25922
In short: as §2

P. aeruginosa ATCC 27853 = details: for Log reduction from vehicle (CFU/g): ATCC 27853, in vivo, iv; for reduction of thigh burdens: 4 mg/kg IV three times at 1, 3.5 and 6 hours post infection
HK-2 cell line = experiment: In vitro renal cell toxicity assay (resazurin reduction); assay type: cell-based, human
[9] = 2 mg/kg IV three times at 1, 3.5 and 6 hours post infection

| MIC A. baumannii ATCC13424 (Acinetobacter baumannii [1]) | MIC A. baumannii CCUG57249 (Acinetobacter baumannii [1]) | MIC P. aeruginosa ATCC 27853 (Pseudomonas aeruginosa [2]) | MIC P. aeruginosa ATCC-47 (Pseudomonas aeruginosa [2]) | MIC P. aeruginosa CCUG 59626 (Pseudomonas aeruginosa [2]) | MIC K. pneumoniae CCUG-59348 (Klebsiella pneumoniae [3]) | MIC E. coli ATCC25922 (Escherichia coli [4]) | MIC A. baumannii CCUG57249 (Acinetobacter baumannii [5]) | MIC A. baumannii NCTC 13424 (Acinetobacter baumannii [5]) | MIC P. aeruginosa ATCC 27853 (Pseudomonas aeruginosa [6]) | MIC P. aeruginosa ATCC-47 (Pseudomonas aeruginosa [6]) | MIC P. aeruginosa CCUG 59626 (Pseudomonas aeruginosa [6]) | MIC K. pneumoniae CCUG-59348 (Klebsiella pneumoniae [7]) | MIC E. coli ATCC25922 (Escherichia coli [8]) | MIC K. pneumoniae ATCC-BAA2146 (Klebsiella pneumoniae [3]) | MIC E. coli NCTC9001 (Escherichia coli [4]) | MIC A. baumannii ATCC BAA-747 (Acinetobacter baumannii [5]) | MIC P. aeruginosa ATCC CRM-9027 (Pseudomonas aeruginosa [6]) | SMILES | Log reduction from vehicle (CFU/g) (P. aeruginosa ATCC 27853; 2 mg/kg, 6 h) | Log reduction from vehicle (CFU/g) (P. aeruginosa ATCC 27853; 4 mg/kg, 6 h) | also measured |
| --- | --- | --- | --- | --- | --- | --- | --- | --- | --- | --- | --- | --- | --- | --- | --- | --- | --- | --- | --- | --- | --- |
| 4 micrograms/mL | 4 micrograms/mL | 0.125 micrograms/mL | 2 micrograms/mL | 0.25 micrograms/mL | >8 micrograms/mL | 2 micrograms/mL | 0.5 micrograms/mL | 0.5 micrograms/mL | 0.25 micrograms/mL | 0.5 micrograms/mL | 0.5 micrograms/mL | 2 micrograms/mL | 0.25 micrograms/mL |  |  |  |  | CC(C)C[C@@H]1NC(=O)[C@@H](Cc2ccccc2)NC(=O)[C@H](CCN)NC(=O)[C@@H](NC(=O)[C@H](CCN)NC(=O)[C@@H](NC(=O)C(O)C2CCCCC2)C(C)O)CCNC(=O)[C@H](C(C)O)NC(=O)[C@H](CCN)NC(=O)[C@H](CCN)NC1=O (mixture of isomers) [Example 27, 2-(RS)-(2-Hydroxy-2-cyclohexyl)ethanoyl polymyxin B nonapeptide] | 0.24 log CFU/g | −0.58 log CFU/g | MIC K. pneumoniae ATCC 4352 (Klebsiella pneumoniae [3]): 2 micrograms/mL; MIC K. pneumoniae NCTC-13438 (Klebsiella pneumoniae [3]): >8 micrograms/mL; MIC K. pneumoniae ATCC 4352 (Klebsiella pneumoniae [7]): 0.125 micrograms/mL; MIC K. pneumoniae NCTC 13438 (Klebsiella pneumoniae [7]): 0.5 micrograms/mL; effect on thigh burdens (P. aeruginosa ATCC 27853; 2 or 4 mg/kg IV three times at 1, 3.5 and 6 hours post infection): did not reduce thigh burdens significantly |
| 1 micrograms/mL | 1 micrograms/mL |  | 1 micrograms/mL | 0.5 micrograms/mL | >32 micrograms/mL |  | 0.125 micrograms/mL | 0.125 micrograms/mL | 0.125 micrograms/mL | 0.5 micrograms/mL | 0.25 micrograms/mL | 2 micrograms/mL | 0.125 micrograms/mL | 32 micrograms/mL | 32 micrograms/mL | 0.125 micrograms/mL | 0.5 micrograms/mL | CC(C)C[C@@H]1NC(=O)[C@@H](Cc2ccccc2)NC(=O)[C@H](CCN)NC(=O)[C@@H](NC(=O)[C@H](CCN)NC(=O)[C@@H](NC(=O)CC(N)c2ccccc2)C(C)O)CCNC(=O)[C@H](C(C)O)NC(=O)[C@H](CCN)NC(=O)[C@H](CCN)NC1=O (stereo partly drawn) [Example 28, [3-(R,S)-3-Amino-3-phenylpropanoyl] Polymyxin B nonapeptide] (ξβ3hPhg-[Thr(3ξ)][Dab][Dab][Dab][dF]L[Dab][Dab][Thr(3ξ)]; lactam 3-C) |  |  | MIC K. pneumoniae NCTC-13438 (Klebsiella pneumoniae [3]): 32 micrograms/mL; MIC A. baumannii NCTC 13423 (Acinetobacter baumannii [5]): ≤0.06 micrograms/mL; MIC K. pneumoniae ATCC-BAA-2146 (Klebsiella pneumoniae [7]): 0.5 micrograms/mL; MIC K. pneumoniae NCTC 13438 (Klebsiella pneumoniae [7]): 0.25 micrograms/mL; Log reduction from vehicle (CFU/g) (P. aeruginosa ATCC 27853; 2 mg/kg, 9 h): −0.38 log CFU/g; Log reduction from vehicle (CFU/g) (P. aeruginosa ATCC 27853; 4 mg/kg, 9 h): 0.20 log CFU/g |
| 1 micrograms/mL | 4 micrograms/mL | 0.25 micrograms/mL | 0.25 micrograms/mL | 0.125 micrograms/mL | >32 micrograms/mL | 4 micrograms/mL | 0.25 micrograms/mL | 0.25 micrograms/mL | 0.25 micrograms/mL | 0.25 micrograms/mL | 0.5 micrograms/mL | 2 micrograms/mL | 0.5 micrograms/mL | 8 micrograms/mL | 8 micrograms/mL | 0.25 micrograms/mL | 0.5 micrograms/mL | CC(C)C[C@@H]1NC(=O)[C@@H](Cc2ccccc2)NC(=O)[C@H](CCN)NC(=O)[C@@H](NC(=O)[C@H](CCN)NC(=O)[C@@H](NC(=O)C[C@H](N)c2ccc3ccccc3c2)C(C)O)CCNC(=O)[C@H](C(C)O)NC(=O)[C@H](CCN)NC(=O)[C@H](CCN)NC1=O (stereo partly drawn) [Example 38, (S)-3-Amino-3-(naphthalene-2-yl)propanoyl polymyxin B nonapeptide, trifluoroacetate salt] (X6-[Thr(3ξ)][Dab][Dab][Dab][dF]L[Dab][Dab][Thr(3ξ)]; lactam 3-C) | −0.37 log CFU/g | 4.94 log CFU/g | MIC A. baumannii ATCCBAA-747 (Acinetobacter baumannii [1]): 0.5 micrograms/mL; MIC P. aeruginosa ATCCCRM-9027 (Pseudomonas aeruginosa [2]): 0.25 micrograms/mL; MIC K. pneumoniae ATCC-BAA-2146 (Klebsiella pneumoniae [7]): 0.5 micrograms/mL; effect on thigh burdens (P. aeruginosa ATCC 27853; [9]): did not affect thigh burdens significantly; reduction of thigh burdens (P. aeruginosa ATCC 27853): 4.9 Log10 CFU/g |
| 1 micrograms/mL | 0.25 micrograms/mL | ≤0.06 micrograms/mL | 0.25 micrograms/mL | 0.125 micrograms/mL | >32 micrograms/mL | 4 micrograms/mL | ≤0.06 micrograms/mL | 0.125 micrograms/mL | 0.125 micrograms/mL | 0.125 micrograms/mL | 0.125 micrograms/mL |  | ≤0.06 micrograms/mL | 0.5 micrograms/mL | 4 micrograms/mL | ≤0.06 micrograms/mL | 0.125 micrograms/mL | CC(C)C[C@@H]1NC(=O)[C@@H](Cc2ccccc2)NC(=O)[C@H](CCN)NC(=O)[C@@H](NC(=O)[C@H](CN)NC(=O)[C@@H](NC(=O)CC(N)C2CCCCC2)C(C)O)CCNC(=O)[C@H](C(C)O)NC(=O)[C@H](CCN)NC(=O)[C@H](CCN)NC1=O (stereo partly drawn) [Example 47, [3-Amino-3-cyclohexyl-propionyl]-L-Thr-L-Dap-polymyxin B heptapeptide, TFA salt] ({ξβ3hGly(cHex)}-[Thr(3ξ)][Dap][Dab][Dab][dF]L[Dab][Dab][Thr(3ξ)]; lactam 3-C) | −0.09 log CFU/g | 1.07 log CFU/g | MIC A. baumannii ATCCBAA-747 (Acinetobacter baumannii [1]): 0.5 micrograms/mL; MIC A. baumannii NCTC 13423 (Acinetobacter baumannii [1]; strain NCTC13423): 0.5 micrograms/mL; MIC P. aeruginosa ATCCCRM-9027 (Pseudomonas aeruginosa [2]): ≤0.06 micrograms/mL; MIC K. pneumoniae ATCC 4352 (Klebsiella pneumoniae [3]): 0.5 micrograms/mL; MIC A. baumannii NCTC 13423 (Acinetobacter baumannii [5]): 0.125 micrograms/mL; MIC K. pneumoniae ATCC 4352 (Klebsiella pneumoniae [7]): 0.125 micrograms/mL; MIC K. pneumoniae ATCC-BAA-2146 (Klebsiella pneumoniae [7]): 0.25 micrograms/mL; MIC E. coli NCTC9001 (Escherichia coli [8]; strain NCTC9001): 0.125 micrograms/mL; effect on thigh burdens (P. aeruginosa ATCC 27853; [9]): did not affect thigh burdens significantly; reduction of thigh burdens (P. aeruginosa ATCC 27853): 1.1 Log10 CFU/g |
|  |  |  |  |  |  |  |  |  |  |  |  |  |  |  |  |  |  | CC(C)C[C@@H]1NC(=O)[C@@H](Cc2ccccc2)NC(=O)[C@H](CCN)NC(=O)[C@@H](NC(=O)[C@H](CCN)NC(=O)[C@@H](NC(=O)Cc2cccc(CN)c2)C(C)O)CCNC(=O)[C@H](C(C)O)NC(=O)[C@H](CCN)NC(=O)[C@H](CCN)NC1=O (some centres unmarked) [Example A1, 2-(3-(Aminomethyl)phenyl) ethanoyl polymyxin B nonapeptide] ({NHCH2(1,3-C6H4)CH2CO}-[Thr(3ξ)][Dab][Dab][Dab][dF]L[Dab][Dab][Thr(3ξ)]; lactam 3-C) |  |  | HK-2 IC50 rel to PMB (HK-2 cell line): 8 |
